Measured values from PubChem BioAssay AID1645864 (Buhrlage Lab, Dana-Farber Cancer Institute and Novartis …, 2021).
Calls of active or inactive are those of the source.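 Rule for the calls: active = maximal inhibition of USP17 at or above 30% in the confirmation dose-response, a value not among the printed readouts; inactive = the rest.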

Biological target: Ubiquitin carboxyl-terminal hydrolase 17-like protein 5 (Homo sapiens) (UniProt A8MUK1)
Test: ubiquitin-specific protease 17 inhibitors, concentration series, biochemical, verification of primary actives (AID 1645864)
Conditions: purified USP17, ubiquitin-rhodamine cleavage fluorescence, 3 h

Sequence of Ubiquitin carboxyl-terminal hydrolase 17-like protein 5 (Homo sapiens) (A8MUK1 whole entry, looked up): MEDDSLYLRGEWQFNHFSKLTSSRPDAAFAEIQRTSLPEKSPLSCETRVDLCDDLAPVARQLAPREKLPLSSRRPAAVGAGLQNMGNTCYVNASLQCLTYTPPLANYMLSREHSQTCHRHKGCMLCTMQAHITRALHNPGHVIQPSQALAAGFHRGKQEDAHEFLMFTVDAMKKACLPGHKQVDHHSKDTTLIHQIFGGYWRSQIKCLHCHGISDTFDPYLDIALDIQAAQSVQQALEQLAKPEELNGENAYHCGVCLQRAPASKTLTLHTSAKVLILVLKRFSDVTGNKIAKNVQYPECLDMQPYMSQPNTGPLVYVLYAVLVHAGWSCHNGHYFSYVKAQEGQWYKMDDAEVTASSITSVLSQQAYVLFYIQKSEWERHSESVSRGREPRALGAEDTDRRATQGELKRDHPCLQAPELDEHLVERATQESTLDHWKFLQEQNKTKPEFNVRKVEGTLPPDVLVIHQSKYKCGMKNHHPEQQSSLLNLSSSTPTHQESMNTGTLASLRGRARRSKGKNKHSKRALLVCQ

Q: With `Cn1ccc2c(cc(C(=O)NCCC3=CCCCC3)n2C)c1=O` as the compound, how does the IC50 read?
A: Its IC50 is > 50 µM (inactive).

Q: How did the IC50 turn out when `Cc1ccn(-c2ccc(NC(=O)C3CCCCC3)cc2)n1` was run?
A: The IC50 was 20.2 µM.

Q: With `O=C1CC(c2cc3c(cc2Br)OCO3)c2cc3c(cc2N1)OCCO3` (stereo unspecified) as the compound, how does the IC50 read?
A: The IC50 was 19.6 µM.

Q: For `CSc1nccc(-c2ccc(F)cc2)c1C#N`, which IC50 is on record?
A: Its IC50 is 20.7 µM.

Q: How did the IC50 turn out when `CCc1ccc(NC(=O)Cc2nnc3cc(-c4nc(C)no4)ccn23)cc1` was run?
A: The IC50 was 20.2 µM.

Q: With `CCCCN(C)C(=O)c1cc2c(=O)n3cccc(C)c3nc2n1Cc1ccccc1` as the compound, how does the IC50 read?
A: The IC50 was 39.8 µM.

Q: For `COc1ccc(-c2cc3c(=O)n(CC(=O)Nc4ccccc4F)ccn3n2)cc1OC`, which IC50 is on record?
A: The IC50 was 3.97 µM.

Q: `O=C(NCc1ccc2c(c1)OCO2)c1cc2c(s1)-c1ccccc1OC2` was tested. Which IC50 did it give?
A: Its IC50 is 3.99 µM.

Q: For `Cc1c(CC(=O)N2CCN(c3ncccn3)CC2)c(=O)oc2cc(O)ccc12`, which IC50 is on record?
A: The IC50 was 24.7 µM.

Q: For `Cn1cc(CCNC(=O)c2cc3ccccc3[nH]2)c2cccnc21`, which IC50 is on record?
A: The IC50 was > 50 µM (inactive).

Q: `COc1ccccc1NS(=O)(=O)c1ccc2oc(SCC(=O)c3ccccc3)nc2c1` was tested. Which IC50 did it give?
A: Its IC50 is > 50 µM (inactive).

Q: For `COc1ccc(-c2cc(-c3nnc(CSc4nc5ccccc5n4C)o3)c3ccccc3n2)cc1OC`, which IC50 is on record?
A: Its IC50 is > 50 µM (inactive).

Q: Which IC50 does the source give for `COc1cc(O)c2c(c1)C1=CC(=O)C(O)=C[C@]1(C)OC2=O` here?
A: The IC50 was 49.4 µM.

Q: Which IC50 does the source give for `COc1ccc(C(C)=O)cc1CC(=O)Nc1nc2ccccc2[nH]1` here?
A: Its IC50 is > 50 µM (inactive).

Q: For `COc1ccc(NC(=O)c2ccc(Nc3nnc(C)c4ccccc34)cc2)cc1`, which IC50 is on record?
A: The IC50 was > 50 µM (inactive).

Q: Which IC50 does the source give for `Cc1cc(Cl)ccc1NC(=O)c1cc(-c2cccnc2)n[nH]1` here?
A: Its IC50 is > 50 µM (inactive).

Q: With `CCN(CC(=O)Nc1cc(C)on1)c1cccc2ccccc12` as the compound, how does the IC50 read?
A: The IC50 was > 50 µM (inactive).

Q: Which IC50 does the source give for `CC(C)=CCC/C(C)=C/Cc1c(O)cc2c(c1O)C(=O)OC2` here?
A: The IC50 was 1.7 µM.

Q: Which IC50 does the source give for `O=C(Nc1cccc(Cl)c1)c1ncn2c1CNS(=O)(=O)c1ccccc1-2` here?
A: Its IC50 is 6.05 µM.

Q: Which IC50 does the source give for `CC(=O)N1CCCC(c2nc(C)cc(-c3cc(F)ccc3C(=O)O)n2)C1` (stereo unspecified) here?
A: The IC50 was > 50 µM (inactive).

Q: For `Cc1ccc2oc(=O)c(S(=O)(=O)N3CCCCC3)cc2c1`, which IC50 is on record?
A: The IC50 was 16.4 µM.

Q: With `O=C(Nc1ccccc1)c1nc(-c2cn(Cc3ccc(F)cc3)nn2)no1` as the compound, how does the IC50 read?
A: Its IC50 is 42.4 µM.

Q: Which IC50 does the source give for `O=C(Cn1cncc(C(=O)NC2CCCC2)c1=O)Nc1cccc(F)c1` here?
A: The IC50 was 19 µM.

Q: Which IC50 does the source give for `CCN(CC)c1nc(F)c2c(c1F)S(=O)(=O)CCN2Cc1cccnc1` here?
A: The IC50 was > 50 µM (inactive).

Q: `COc1ccc(NC2c3ccccc3C(=O)N2c2ccccn2)cc1` (stereo unspecified) was tested. Which IC50 did it give?
A: The IC50 was > 50 µM (inactive).

Q: Which IC50 does the source give for `O=C(COC(=O)c1ccc(CN2CCCC2=O)cc1)c1ccc2c(c1)OCCO2` here?
A: Its IC50 is > 50 µM (inactive).

Q: How did the IC50 turn out when `Cn1nccc1C(=O)N1CCCCC1c1ncc(Cc2ccc(Cl)cc2)o1` (stereo unspecified) was run?
A: The IC50 was > 50 µM (inactive).

Q: With `Cc1nc(N2CCCC2)ncc1-c1cc(=O)[nH]c(N2CCc3ccccc3C2)n1` as the compound, how does the IC50 read?
A: Its IC50 is 21.6 µM.

Q: `Cc1cc(/C=C2/C(=N)N3C(c4ccccc4)=CSC3=NC2=O)c(C)n1-c1ccc(F)cc1` was tested. Which IC50 did it give?
A: Its IC50 is > 50 µM (inactive).

Q: `O=C(CNc1nc(Nc2ccccc2F)nc(Nc2ccccc2F)n1)Nc1ccccc1` was tested. Which IC50 did it give?
A: The IC50 was 35.5 µM.

Q: For `COc1ccc(C2C(C(=O)C(C)(C)C)N3c4ccccc4C=CC3C23C(=O)c2ccccc2C3=O)c(OC)c1` (stereo unspecified), which IC50 is on record?
A: The IC50 was > 50 µM (inactive).
